Each structure is given as a SMILES string. Active and inactive are the calls of the source.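 How the source made its calls: active means fitted curve reaches 10% of the positive control caspase activation at or below the top valid tested dose; inactive means signal shifts the opposite way, plus the rest.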

Caspase activation and AC10 data for 21 compounds are collected here from PubChem BioAssay AID504342 (Broad Institute, 2011).

A short description of assay [1]: caspase activation in Flag-A1-IRES-BIM MEFs, dose response, orthogonal assay for A1 inhibitor project, cell-based, MEF, plate reader, dry powder, set 2 (AID 504342). The settings on record: MEF Flag-A1-IRES-BIM, caspase-Glo luminescence, 3 h; at 35 µM (top of the series).
For assay [2], the system named is MEF Flag-A1-IRES-BIM, caspase-Glo luminescence, 3 h. Described as above.

In the case of `O=c1oc2ccccc2c(N2CCCCC2)c1[N+](=O)[O-]`, the caspase activation in assay [1] was -2.6% (inactive).

For the compound `O=c1oc2ccccc2c(Nc2cc(Cl)cc(Cl)c2)c1[N+](=O)[O-]`, the caspase activation in assay [1] is -0.897% (inactive).

On to `CN1C(=O)C(C)(C)N(Cc2ccccc2)c2ccccc21`, for which the caspase activation in assay [1] is 1.13% (inactive).

With `Cn1c(=O)c([N+](=O)[O-])c(Oc2ccccc2)c2ccccc21`, the AC10 in assay [2] is > 35 µM (inactive).

Turning to `Cc1ccc(Nc2c([N+](=O)[O-])c(=O)oc3ccccc23)cc1`, the caspase activation in assay [1] was 0.875% (inactive).

Take `CCOCCCNc1c([N+](=O)[O-])c(=O)n(C)c2ccccc12`: the caspase activation in assay [1] was 1.28% (inactive).

On to `O=c1oc2ccccc2c(Cl)c1[N+](=O)[O-]`, for which the caspase activation in assay [1] is -5.93% (inactive).

For the compound `C/C1=C/C(=O)O[C@@H]2C[C@@H](CC[C@H](C)/C=C\CC1)O[C@@](O)(C1CSC(=O)N1)C2` (stereo partly specified), in assay [1], the caspase activation was 2.78% (inactive).

Take `Cc1ccc(Nc2c([N+](=O)[O-])c(=O)n(C)c3ccccc23)cc1`: the caspase activation in assay [1] is -0.435% (inactive).

As to `Cc1ccc(Sc2c([N+](=O)[O-])cnc3ccccc23)cc1`, the AC10 in assay [2] is > 16 µM (inactive).

As for `Cc1ccc(Sc2cc(=O)n(C)c3ccccc23)cc1`, the caspase activation in assay [1] was -6.4% (inactive).

With `Cn1c(=O)c([N+](=O)[O-])c(Nc2ccc(Cl)cc2)c2ccccc21`, the caspase activation in assay [1] was -0.882% (inactive).

As for `CCOC(=O)N1CCN(c2c([N+](=O)[O-])c(=O)n(C)c3ccccc23)CC1`, the caspase activation in assay [1] was -0.543% (inactive).

For the compound `Cc1ccc(Sc2c([N+](=O)[O-])c(=O)n(C)c3ccccc23)cc1`, in assay [2], the AC10 is 5.09 µM.

On to `Cc1ccc(Sc2c([N+](=O)[O-])c(=O)oc3ccccc23)cc1`, for which the caspase activation in assay [1] is -2.87% (inactive).

`CCSc1c([N+](=O)[O-])c(=O)oc2ccccc12`: the caspase activation in assay [1] is -1.44% (inactive).

As to `O=C(Oc1cccc(/C=N/Nc2nc(Nc3ccccc3)nc(N3CCOCC3)n2)c1)c1ccco1`, the caspase activation in assay [1] was 2.95% (inactive).

Consider `Cn1c(=O)c([N+](=O)[O-])c(-n2cnc3ccccc32)c2ccccc21`, for which, in assay [2], the AC10 is 15.1 µM.

In the case of `O=[N+]([O-])c1cnc2ccccc2c1Sc1ccccc1`, the caspase activation in assay [1] is -1.68% (inactive).

Take `Cn1c(=O)c([N+](=O)[O-])c(Cl)c2ccccc21`: the AC10 in assay [2] is 1.11 µM.

As for `O=c1oc2ccccc2c(Sc2ccccc2)c1[N+](=O)[O-]`, the caspase activation in assay [1] was -6.2% (inactive).
